Patent US20230263886A1, “VACCINES, VACCINE PRIMING, AND ANTIGEN DOSE SPARING” (priority 2020, published 2023)

Assays:
[1] = test system: H3N2; conditions: including a recombinant influenza antigen
Method: Sera were analyzed at days 0, 14, and 28 by ELISA for H3N2-specific IgG titers and HI (hemagglutination inhibition) titers, H1N1-specific IgG titers and HI titers, and B/Phuket-specific IgG titers and HI titers. All mice were previously naïve to human influenza.

[2] = test system: H3N2; test: H3N2-specific IgG by ELISA, dose-sparing study in mice (Example 4); conditions: FIG. 26
Method: Sera were analyzed at days 0, 21 and 42 by ELISA for H3N2-specific IgG.

[3] = format: in vivo, C57BL/6J mice
Method: Body weights were measured serially.

| Compound | dose sparing for vaccine antigens [1] | antigen dose-sparing effects, murine antibody response to FLUBLOK [2] | body weight after immunization ([3]; mice receiving TQL-1055) | maximum weight loss ([3]; mice receiving 20 mcg of QS-21) [%] |
| --- | --- | --- | --- | --- |
| CC1O[C@@H](OC2C(O)[C@@H](NC(=O)CCCCCCCCCCC(=O)O)C(CO)O[C@H]2OC(=O)[C@]23CCC(C)(C)CC2C2=CCC4C5(C)CC[C@H](O)C(C)(C=O)C5CCC4(C)C2(C)CC3O)C(O)C(O)[C@H]1O[C@@H]1OC[C@@H](O)C(O)C1O (stereo partly shown) [TQL-1055] | at least 32 × | superior antigen dose-sparing effects | gained weight steadily |  |
| QS-21 [reference compound] |  |  |  | > 10 |
